Key:
iPS cells = assay: Growth of iPS cells in the presence of doxycycline (dose response); format: cell-based, human; settings: FIG. 7B
Protocol: The media conditions to maintain human iPSCs have all been previously described (40). For passaging the cells Accutase (StemCell Technologies, Vancouver, BC) was used for 5 minutes at 37° C. and then stopped with iPSC media containing 10 μM Y-27632 (Selleckchem, Houston, Tex.) (41). The dissociated IPSCs were seeded on new plates with media containing Y-27632, and after 24 hours replaced with media alone. iPSC media was changed daily.
We also did a complete dose-response curve on the growth of iPS cells in the presence of doxycycline up to 30 μg/mL, with toxicity observed beginning at the 10 μg/mL level (FIG. 7B). Beyond effects on iPS cells, we further confirmed the ability of doxycycline to support the induction of iPSCs to endoderm. For this we performed immunohistochemical staining for markers of endoderm, including CXCR4, SOX17, FOXA2, and HNF16 (FIG. 2A and 2B). […] More importantly, the ML1 protocol allowed induction of complete monolayers of endoderm from virtually any iPSC. Compared to many of the other protocols that we tested for poorly differentiating iPS cell lines(6, 8), we could actually differentiate most lines using the ML1 protocol, but only a fraction of them using the other protocols. […]

iPSC lines = format: cell-based
Protocol: Induction of Definitive Endoderm (days 1-7). iPSCs were plated on 6-, 12-, or 96-well Matrigel-coated plates at different densities for differentiation in iPSC media containing 10 μM Y-27632 and 2 μM doxycycline. For example, typical plating density in a single well of a 6-well plate was 500,000 cells or 20,000 cells per well for 96-well plates. The differentiation process consisted of one week of RPMI media supplemented with Gem21 NeuroPlex without insulin at 1× (supplied at 50×, Gemini Bio-Products West Sacramento, Calif., catalog #400-962, or supplemented with Gibco B27 without insulin at 1×), Glutagro at 1× (Corning, Manassas, Va., catalog #25-015-CI, non-essential amino acids at 1× (Gibco, catalog #11-140-050), sodium butyrate (0.5 mM, Sigma Aldrich, catalog #B5887) and recombinant human Activin A (100 ng/mL, Peprotech, Rocky Hill, N.J., catalog #120-14E) for 7 days. On day 1, 2% KnockOut Serum Replacement (KSR; Gibco Catalog #10828028), CHIR-99021 (10 ng/mL, Selleckchem catalog #S2924), PI-103 (10 ng/mL,Selleckchem catalog #S1038), recombinant human BMP4 (10 ng/mL, Peprotech catalog #120-05ET) and FGF2 (20 ng/mL, Peprotech catalog #100-18B) were added to the media. On day 2, 1% KSR, PI-103 (10 ng/mL) and BMP4 (10 ng/mL) and FGF2 (20 ng/mL) and on day 3, 0.2% KSR and PI-103 (10 ng/mL) were added to the media. Doxycycline hyclate (Acros Organics catalog #446061000) was added throughout definitive endoderm induction starting on day 0 (passage day) at various concentrations, as described herein, with a standard concentration being 2 μM. These steps can be performed at normal room oxygen at about 20% or at low oxygen between 4 and 6%.

iPSC-derived hepatocytes = assay: RNA Sequencing of iPSCs fully differentiated to hepatocytes; format: cell-based, human; settings: 5 paired iPSCs, doxycycline during endoderm phase
Protocol: Differentiation of Definitive Endoderm to hepatocytes (days 8-23). iPSC-derived human endoderm prepared as described herein was cultured continuously on Matrigel or split 1:2 onto Matrigel plates for hepatic differentiation. Definitive endoderm (DE) was cultured in Iscove's modified Dulbecco's medium (Gibco catalog #supplemented with Gem21 NeuroPlex without insulin (Gemini Bio-Products catalog #400-962), Glutagro, non-essential amino acids (1×, Gibco catalog #11-140-050), 0.3 mM monothioglycerol, 5 μg/mL human insulin (Sigma), and 100 nM dexamethasone. To induce hepatoblasts, cells were treated with FGF2 (10 ng/mL) and BMP4 (20 ng/mL) for 5 days. During this phase, cells can be passaged using accutase and split at least 2 to 4× to increase yield and quality of final product again onto Matrigel with the addition of 10 μM Y-27632 and 2 μM doxycycline to increase cell survival during accutase treatment and splitting. This phase and the next were grown at low oxygen (4-6%) and 5% CO2. […]
RNA isolation, Real-Time PCR analysis, and RNA Sequencing. […] Quantitative Real-Time PCR was performed using FastStart Universal SYBR Green, Roche Diagnostics (Indianapolis, IN). […] On average, 27,642,407 raw reads were obtained and mapped. Raw reads were subjected to quality control. Clean reads were analyzed by Gene Ontology analysis, KEGG pathway enrichment, and cluster analysis. […]

Structure (SMILES): C[C@H]1c2cccc(O)c2C(=O)C2=C(O)[C@]3(O)C(=O)C(C(N)=O)=C(O)[C@@H](N(C)C)[C@@H]3[C@@H](O)[C@@H]21 [doxycycline]
- titration of doxycycline, outcome in words (iPS cells): an optimal level of doxycycline and a toxic level
- concentration at which toxicity begins (iPS cells; dose-response up to 30 μg/mL): 10000 ng/mL
- concentration giving total cell death (iPSC lines; by the third day of induction): > 10000 ng/mL
- concentration tolerated by the cells (iPSC lines; endoderm induction): up to 10 μg/mL
- effect on final iPSC-derived hepatocytes (principal component analysis) (iPSC-derived hepatocytes): did not alter the final product

Source: patent US20230002736A1, “ENDODERM DIFFERENTIATION FROM PLURIPOTENT STEM CELL LINES” (priority 2019, published 2023)
